Measurements reported in patent US10273251B2, “Composition, cured film, near infrared ray absorption filter, solid-state imaging device, infrared sensor, and compound” (FUJIFILM Corporation, priority 2014, dated 2019).

Columns and labels:
Type in all cases: physicochemical
[1] = Solubility of the compound to propylene glycol monomethyl ether acetate; conditions: visually observed
Excerpt: Solubility of the compound to propylene glycol monomethyl ether acetate was visually observed.

[2] = Heat resistance of near infrared ray absorption filter (ΔEab before/after heating); conditions: filter 1.0 μm, 7.5 mass % compound; 260° C. for 30 minutes on hot plate; ΔEab class
Method: (§1) Compositions below were mixed so as to prepare the composition. A solid content of the composition is 31 mass % and a content of the near infrared ray absorption substance with respect to the total solid content of the composition was 7.5 mass %.
(§2) Glass substrates (1737 manufactured by Corning Incorporated) were coated with respective compositions by using a spin coater such that film thicknesses after drying become 1.0 μm, and a heating treatment (prebaking) was performed for 120 seconds by using a hot plate of 100° C.
(§3) Subsequently, beta exposure was performed by 500 mJ/cm^2 by using an i-ray stepper exposure device FPA-3000i5+ (manufactured by Canon Inc.). Subsequently, puddle development was performed at 23° C. for 60 seconds by using CD-2060 (manufactured by Fujifilm Electronic Materials), a rinse treatment was performed with pure water on a glass substrate on which a beta coloration layer was formed, and spray drying was performed.
(§4) The heating treatment (post baking) was performed for 300 seconds by using a hot plate of 200° C., so as to obtain a near infrared ray absorption filter.
After the near infrared ray absorption filter was heated to 260° C. for 30 minutes by a hot plate, the ΔEab value of a color difference before and after heat resistance test was measured using a color meter MCPD-1000 (manufactured by Otsuka Electronics Co., Ltd.), so as to evaluate a criterion below. A smaller ΔEab value indicates more satisfactory heat resistance.

[3] = Evaluation of maximum absorption wavelength, half-width and absorbance ratio (liquid absorption spectrum); conditions: 2.5×10^−6 mol/L, optical path length 10 mm
[4] = as above; conditions: 2.5×10^−6 mol/L, optical path length 10 mm; remark: listed apart in the source
Method: —Evaluation of Maximum Absorption Wavelength, Half-Width, and Absorbance Ratio—Respective compounds were dissolved in measuring solvents (concentration: 2.5×10^−6 mol/L) described in the table below so as to measure an absorption spectrum (Optical path length: 10 mm).
Maximum absorption wavelengths (λmax) of absorption spectrums, half-widths of the maximum absorption wavelengths, and absorbance ratios (550 nm/λmax) which are values obtained by dividing absorbance at a wavelength of […] by absorbance at the maximum absorption wavelength with respect to respective compounds are presented in Table 1 below. FIG. 3 illustrates an absorption spectrum of the compound D-1 in chloroform.

[5] = Light fastness of near infrared ray absorption filter (ΔEab before/after xenon lamp); conditions: filter 1.0 μm, 7.5 mass % compound; xenon lamp 50,000 lux for 20 hours; ΔEab class
Method: as §1, §2, §3, §4
After the near infrared ray absorption filter was irradiated with a xenon lamp was applied by 50,000 lux for 20 hours (corresponding to 1,000,000 lux·h), an ΔEab value of a color difference before and after a light-fast test was measured. A smaller ΔEab value indicates more satisfactory light fastness.
The ΔEab value is a value obtained from a color difference equation below according to a CIE 1976 (L*, a*, b*) space color system (Handbook of Color Science, New Edition, edited by the Color Science Association of Japan, (1985), p. 266). ΔEab={(ΔL*)^2[…](Δa*)^2+(Δb*)^2}^1/2

[6] = measuring solvent ethyl acetate
[7] = measuring solvent tetrahydrofuran

CCCCCCCCC(CCCCCC)COc1cccc(-c2c3/c(=C(\C#N)c4cnc5cc(Cl)c(Cl)cc5n4)n(B(c4ccccc4)c4ccccc4)c(-c4cccc(OCC(CCCCCC)CCCCCCCC)c4)c3/c(=C(\C#N)c3cnc4cc(Cl)c(Cl)cc4n3)n2B(c2ccccc2)c2ccccc2)c1 [Compound D-1]
Solubility [1]: A (Solubility 2% or greater) | Heat resistance [2]: 5 (ΔEab value<3) | Absorbance ratio (550 nm/λmax) ([3]; measuring solvent chloroform): 0.011 | Absorbance ratio (550 nm/λmax) [3, 6]: 0.011 | Absorbance ratio (550 nm/λmax) [3, 7]: 0.01 | Half-width ([4]; measuring solvent chloroform): 29 nm | Maximum absorption wavelength ([4]; measuring solvent chloroform): 884 nm | Half-width [4, 6]: 30 nm | Maximum absorption wavelength [4, 6]: 880 nm | Half-width [4, 7]: 29 nm | Maximum absorption wavelength [4, 7]: 884 nm | Light fastness [5]: 5 (ΔEab value<3)

CC(CCC(COc1cccc(-c2c3/c(=C(\C#N)c4cnc5ccccc5n4)n(B(c4ccccc4)c4ccccc4)c(-c4cccc(OCC(CCC(C)CC(C)(C)C)C(C)CC(C)(C)C)c4)c3/c(=C(\C#N)c3cnc4ccccc4n3)n2B(c2ccccc2)c2ccccc2)c1)C(C)CC(C)(C)C)CC(C)(C)C [Compound D-28]
Solubility [1]: A (Solubility 2% or greater) | Heat resistance [2]: 5 (ΔEab value<3) | Absorbance ratio (550 nm/λmax) ([3]; measuring solvent chloroform): 0.006 | Half-width ([4]; measuring solvent chloroform): 29 nm | Maximum absorption wavelength ([4]; measuring solvent chloroform): 863 nm | Light fastness [5]: 5 (ΔEab value<3)

CCCCCCCCCCC(CCCCCCCC)COc1cccc(-c2c3/c(=C(\C#N)c4cnc5cc(Cl)c(Cl)cc5n4)n(B(c4ccccc4)c4ccccc4)c(-c4cccc(OCC(CCCCCCCC)CCCCCCCCCC)c4)c3/c(=C(\C#N)c3cnc4cc(Cl)c(Cl)cc4n3)n2B(c2ccccc2)c2ccccc2)c1 [Compound D-31]
Solubility [1]: A (Solubility 2% or greater) | Heat resistance [2]: 5 (ΔEab value<3) | Absorbance ratio (550 nm/λmax) ([3]; measuring solvent chloroform): 0.01 | Half-width ([4]; measuring solvent chloroform): 28 nm | Maximum absorption wavelength ([4]; measuring solvent chloroform): 884 nm | Light fastness [5]: 5 (ΔEab value<3)

CCC(C)COc1cccc(-c2c3/c(=C(\C#N)c4cnc5ccccc5n4)n(B(c4ccccc4)c4ccccc4)c(-c4cccc(OCC(C)CC)c4)c3/c(=C(\C#N)c3cnc4ccccc4n3)n2B(c2ccccc2)c2ccccc2)c1 [Compound D-7]
Solubility [1]: A (Solubility 2% or greater) | Heat resistance [2]: 5 (ΔEab value<3) | Absorbance ratio (550 nm/λmax) ([3]; measuring solvent chloroform): 0.013 | Half-width ([4]; measuring solvent chloroform): 29 nm | Maximum absorption wavelength ([4]; measuring solvent chloroform): 863 nm | Light fastness [5]: 5 (ΔEab value<3)

CCCCCCCCC(CCCCCC)COc1ccc(-c2c3/c(=C(\C#N)c4cnc5cc(Cl)c(Cl)cc5n4)n(B(c4ccccc4)c4ccccc4)c(-c4ccc(OCC(CCCCCC)CCCCCCCC)cc4)c3/c(=C(\C#N)c3cnc4cc(Cl)c(Cl)cc4n3)n2B(c2ccccc2)c2ccccc2)cc1 (stereo not drawn) [Compound E-1, reference compound]
Solubility [1]: C (Solubility less than 0.5%) | Heat resistance [2]: 5 (ΔEab value<3) | Absorbance ratio (550 nm/λmax) ([3]; measuring solvent chloroform): 0.019 | Half-width ([4]; measuring solvent chloroform): 31 nm | Maximum absorption wavelength ([4]; measuring solvent chloroform): 884 nm | Light fastness [5]: 5 (ΔEab value<3)

CCCCCCCCCCC(CCCCCCCC)COc1cccc(-c2c3/c(=C(\C#N)c4cnc5ccccc5n4)n(B(c4ccccc4)c4ccccc4)c(-c4cccc(OCC(CCCCCCCC)CCCCCCCCCC)c4)c3/c(=C(\C#N)c3cnc4ccccc4n3)n2B(c2ccccc2)c2ccccc2)c1 [Compound D-29]
Solubility [1]: A (Solubility 2% or greater) | Heat resistance [2]: 5 (ΔEab value<3) | Absorbance ratio (550 nm/λmax) ([3]; measuring solvent chloroform): 0.006 | Half-width ([4]; measuring solvent chloroform): 28 nm | Maximum absorption wavelength ([4]; measuring solvent chloroform): 862 nm | Light fastness [5]: 5 (ΔEab value<3)

CCCCC(CC)COc1cccc(-c2c3/c(=C(\C#N)c4ccc5ccccc5n4)n(B(c4ccccc4)c4ccccc4)c(-c4cccc(OCC(CC)CCCC)c4)c3/c(=C(\C#N)c3ccc4ccccc4n3)n2B(c2ccccc2)c2ccccc2)c1 [Compound D-10]
Solubility [1]: A (Solubility 2% or greater) | Heat resistance [2]: 5 (ΔEab value<3) | Absorbance ratio (550 nm/λmax) ([3]; measuring solvent chloroform): 0.01 | Half-width ([4]; measuring solvent chloroform): 30 nm | Maximum absorption wavelength ([4]; measuring solvent chloroform): 814 nm | Light fastness [5]: 5 (ΔEab value<3)

CCCCCCCCCCCCCCCCCCOc1cccc(-c2c3/c(=C(\C#N)c4nc5ccccc5s4)n(B(c4ccccc4)c4ccccc4)c(-c4cccc(OCCCCCCCCCCCCCCCCCC)c4)c3/c(=C(\C#N)c3nc4ccccc4s3)n2B(c2ccccc2)c2ccccc2)c1 [Compound D-11]
Solubility [1]: B (Solubility 0.5% or greater and less than 2%) | Heat resistance [2]: 5 (ΔEab value<3) | Absorbance ratio (550 nm/λmax) ([3]; measuring solvent chloroform): 0.009 | Half-width ([4]; measuring solvent chloroform): 30 nm | Maximum absorption wavelength ([4]; measuring solvent chloroform): 779 nm | Light fastness [5]: 5 (ΔEab value<3)

CCCCCCCC/C=C\CCCCCCCCOc1cccc(-c2c3/c(=C(\C#N)c4cnc5cc(Cl)c(Cl)cc5n4)n(B(c4ccccc4)c4ccccc4)c(-c4cccc(OCCCCCCCC/C=C\CCCCCCCC)c4)c3/c(=C(\C#N)c3cnc4cc(Cl)c(Cl)cc4n3)n2B(c2ccccc2)c2ccccc2)c1 [Compound D-5]
Solubility [1]: B (Solubility 0.5% or greater and less than 2%) | Heat resistance [2]: 5 (ΔEab value<3) | Absorbance ratio (550 nm/λmax) ([3]; measuring solvent chloroform): 0.01 | Half-width ([4]; measuring solvent chloroform): 29 nm | Maximum absorption wavelength ([4]; measuring solvent chloroform): 884 nm | Light fastness [5]: 5 (ΔEab value<3)

COc1ccc2oc(/C(C#N)=c3/c4c(-c5cccc(OCC(CCC(C)CC(C)(C)C)C(C)CC(C)(C)C)c5)n(B(c5ccccc5)c5ccccc5)/c(=C(/C#N)c5nc6cc(C)ccc6o5)c4c(-c4cccc(OCC(CCC(C)CC(C)(C)C)C(C)CC(C)(C)C)c4)n3B(c3ccccc3)c3ccccc3)nc2c1 [Compound D-43]
Solubility [1]: A (Solubility 2% or greater) | Heat resistance [2]: 5 (ΔEab value<3) | Absorbance ratio (550 nm/λmax) ([3]; measuring solvent chloroform): 0.003 | Half-width ([4]; measuring solvent chloroform): 30 nm | Maximum absorption wavelength ([4]; measuring solvent chloroform): 748 nm | Light fastness [5]: 5 (ΔEab value<3)

CCCCCCCCC(CCCCCCCC)COc1cccc(-c2c3/c(=C(\C#N)c4cnc5cc(C)ccc5n4)n(B(c4ccccc4)c4ccccc4)c(-c4cccc(OCC(CCCCCCCC)CCCCCCCC)c4)c3/c(=C(\C#N)c3cnc4cc(C)ccc4n3)n2B(c2ccccc2)c2ccccc2)c1 [Compound D-8]
Solubility [1]: A (Solubility 2% or greater) | Heat resistance [2]: 5 (ΔEab value<3) | Absorbance ratio (550 nm/λmax) ([3]; measuring solvent chloroform): 0.01 | Half-width ([4]; measuring solvent chloroform): 31 nm | Maximum absorption wavelength ([4]; measuring solvent chloroform): 866 nm | Light fastness [5]: 5 (ΔEab value<3)

COCCOCCOc1cccc(-c2c3/c(=C(\C#N)c4cnc5cc(Cl)c(Cl)cc5n4)n(B(c4ccccc4)c4ccccc4)c(-c4cccc(OCCOCCOC)c4)c3/c(=C(\C#N)c3cnc4cc(Cl)c(Cl)cc4n3)n2B(c2ccccc2)c2ccccc2)c1 [Compound D-4]
Solubility [1]: B (Solubility 0.5% or greater and less than 2%) | Heat resistance [2]: 4 (3≤ΔEab value<5) | Absorbance ratio (550 nm/λmax) ([3]; measuring solvent chloroform): 0.012 | Half-width ([4]; measuring solvent chloroform): 29 nm | Maximum absorption wavelength ([4]; measuring solvent chloroform): 883 nm | Light fastness [5]: 5 (ΔEab value<3)

CC(CCC(COc1cccc(-c2c3/c(=C(\C#N)c4cnc5cc(Cl)c(Cl)cc5n4)n(B(c4ccccc4)c4ccccc4)c(-c4cccc(OCC(CCC(C)CC(C)(C)C)C(C)CC(C)(C)C)c4)c3/c(=C(\C#N)c3cnc4cc(Cl)c(Cl)cc4n3)n2B(c2ccccc2)c2ccccc2)c1)C(C)CC(C)(C)C)CC(C)(C)C [Compound D-32]
Solubility [1]: A (Solubility 2% or greater) | Heat resistance [2]: 5 (ΔEab value<3) | Absorbance ratio (550 nm/λmax) ([3]; measuring solvent chloroform): 0.01 | Half-width ([4]; measuring solvent chloroform): 28 nm | Maximum absorption wavelength ([4]; measuring solvent chloroform): 884 nm | Light fastness [5]: 5 (ΔEab value<3)

Cc1cc2ncc(/C(C#N)=c3/c4c(-c5cccc(OCC(CCC(C)CC(C)(C)C)C(C)CC(C)(C)C)c5)n(B(c5ccccc5)c5ccccc5)/c(=C(/C#N)c5cnc6cc(C)c(C)cc6n5)c4c(-c4cccc(OCC(CCC(C)CC(C)(C)C)C(C)CC(C)(C)C)c4)n3B(c3ccccc3)c3ccccc3)nc2cc1C [Compound D-6]
Solubility [1]: A (Solubility 2% or greater) | Heat resistance [2]: 5 (ΔEab value<3) | Absorbance ratio (550 nm/λmax) ([3]; measuring solvent chloroform): 0.01 | Half-width ([4]; measuring solvent chloroform): 32 nm | Maximum absorption wavelength ([4]; measuring solvent chloroform): 872 nm | Light fastness [5]: 5 (ΔEab value<3)
